Biological target: T1, Human M4 (Homo sapiens, UniProt P08173)
T1 construct: expressed in transfected cells
T1 sequence (P08173 1-479): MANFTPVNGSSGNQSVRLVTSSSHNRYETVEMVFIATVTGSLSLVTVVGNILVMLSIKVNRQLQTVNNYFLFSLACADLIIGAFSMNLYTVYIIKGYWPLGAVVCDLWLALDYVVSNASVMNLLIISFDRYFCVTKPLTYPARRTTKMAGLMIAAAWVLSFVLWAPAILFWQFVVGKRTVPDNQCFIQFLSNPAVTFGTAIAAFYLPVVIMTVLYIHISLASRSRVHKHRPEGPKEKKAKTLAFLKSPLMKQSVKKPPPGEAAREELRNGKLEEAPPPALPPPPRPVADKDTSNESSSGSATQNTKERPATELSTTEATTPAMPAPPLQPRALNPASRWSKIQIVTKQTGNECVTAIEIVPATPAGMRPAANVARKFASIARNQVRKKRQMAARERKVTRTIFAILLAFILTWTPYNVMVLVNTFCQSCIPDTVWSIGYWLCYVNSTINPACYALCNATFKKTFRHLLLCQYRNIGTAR
Experiment: mAChR M4 cell-based functional assay (calcium flux, potentiation of EC20 acetylcholine response), hM4-Gqi5 CHO-K1 cells
Settings: Table 3; for Emax at 30 µM: CHO-K1, Human M4, % ACh maximum at 30 μM, read-out: Emax (% ACh maximum at 30 μM); for EC50: potentiation of EC20 acetylcholine response, calcium flux, CHO-K1 cells, read-out: Human M4 EC50
Summary of the method: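 Positive allosteric modulation was scored as a concentration-dependent rise in the response to an EC20 dose of acetylcholine, added 144 s after the compound. Human M4-Gqi5 CHO-K1 cells carried Fluo-4 dye, and compounds ran as 11-point, 3-fold dilution series. EC50 and Emax came from four-parameter logistic fits of the FDSS fluorescence-ratio traces.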

Structure (SMILES)	Emax at 30 µM	EC50
Cc1c(N2CCc3ncc(-c4ccc(N5CCOCC5)cc4)cc3C2)nn2cnnc2c1C [Compound 223, 4-(4-(6-(7,8-dimethyl-[1,2,4]triazolo[4,3-b]pyridazin-6-yl)-5,6,7,8-tetrahydro-1,6-naphthyridin-3-yl)phenyl)morpholine]	95%	329 nM
Cc1c(N2CCc3ncc(-c4ccc(N5CCN(C)CC5)cc4)cc3C2)nn2cnnc2c1C [Compound 224, 6-(7,8-dimethyl-[1,2,4]triazolo[4,3-b]pyridazin-6-yl)-3-(4-(4-methylpiperazin-1-yl)phenyl)-5,6,7,8-tetrahydro-1,6-naphthyridine]	100%	581 nM
Cc1c(N2CCc3ncc(-c4ccc(N5CCC(F)(F)C5)nc4)cc3C2)nn2cnnc2c1C [Compound 225, 3-(6-(3,3-difluoropyrrolidin-1-yl)pyridin-3-yl)-6-(7,8-dimethyl-[1,2,4]triazolo[4,3-b]pyridazin-6-yl)-5,6,7,8-tetrahydro-1,6-naphthyridine]	85%	435 nM
Cc1c(N2CCc3ncc(C(=O)Nc4ccccc4F)cc3C2)nn2c(C(F)(F)F)nnc2c1C [Compound 226, 6-(7,8-dimethyl-3-(trifluoromethyl)-[1,2,4]triazolo[4,3-b]pyridazin-6-yl)-N-(2-fluorophenyl)-5,6,7,8-tetrahydro-1,6-naphthyridine-3-carboxamide]	79%	1780 nM
Cc1c(N2CCc3ncc(C(=O)N4CCCC4)cc3C2)nn2c(C(F)(F)F)nnc2c1C [Compound 227, (6-(7,8-dimethyl-3-(trifluoromethyl)-[1,2,4]triazolo[4,3-b]pyridazin-6-yl)-5,6,7,8-tetrahydro-1,6-naphthyridin-3-yl)(pyrrolidin-1-yl)methanone]	76%	6410 nM
Cc1c(N2CCc3ncc(C(=O)NCc4cncs4)cc3C2)nn2c(C(F)(F)F)nnc2c1C [Compound 228, 6-(7,8-dimethyl-3-(trifluoromethyl)-[1,2,4]triazolo[4,3-b]pyridazin-6-yl)-N-(thiazol-5-ylmethyl)-5,6,7,8-tetrahydro-1,6-naphthyridine-3-carboxamide]	85%	1720 nM
COc1ccc2c(c1)CCCN2c1cnc2c(c1)CN(c1nn3c(C(F)(F)F)nnc3c(C)c1C)CC2 [Compound 229, 6-(7,8-dimethyl-3-(trifluoromethyl)-[1,2,4]triazolo[4,3-b]pyridazin-6-yl)-3-(6-methoxy-3,4-dihydroquinolin-1(2H)-yl)-5,6,7,8-tetrahydro-1,6-naphthyridine]	48%	590 nM
Cc1c(N2CCc3ncc(N4CCOc5ccccc54)cc3C2)nn2c(C(F)(F)F)nnc2c1C [Compound 230, 4-(6-(7,8-dimethyl-3-(trifluoromethyl)-[1,2,4]triazolo[4,3-b]pyridazin-6-yl)-5,6,7,8-tetrahydro-1,6-naphthyridin-3-yl)-3,4-dihydro-2H-benzo[b][1,4]oxazine]	83%	398 nM
Cc1c(N2CCc3ncc(N4CCCc5ccccc54)cc3C2)nn2c(C(F)(F)F)nnc2c1C [Compound 231, 3-(3,4-dihydroquinolin-1(2H)-yl)-6-(7,8-dimethyl-3-(trifluoromethyl)-[1,2,4]triazolo[4,3-b]pyridazin-6-yl)-5,6,7,8-tetrahydro-1,6-naphthyridine]	65%	1930 nM
Cc1c(N2CCc3ncc(N4CCOc5ccc(F)cc54)cc3C2)nn2c(C(F)(F)F)nnc2c1C [Compound 232, 4-(6-(7,8-dimethyl-3-(trifluoromethyl)-[1,2,4]triazolo[4,3-b]pyridazin-6-yl)-5,6,7,8-tetrahydro-1,6-naphthyridin-3-yl)-6-fluoro-3,4-dihydro-2H-benzo[b][1,4]oxazine]	83%	353 nM
Cc1cc2nncn2nc1N1CCc2ncc(C(C)(C)O)cc2C1 [Compound 233, 2-(6-(7-methyl-[1,2,4]triazolo[4,3-b]pyridazin-6-yl)-5,6,7,8-tetrahydro-1,6-naphthyridin-3-yl)propan-2-ol]	97%	4010 nM

Source: patent US20250002507A1, “7,8-DIHYDRO-5H-1,6-NAPHTHYRIDINE DERIVATIVES AS POSITIVE ALLOSTERIC MODULATORS OF THE MUSCARINIC ACETYLCHOLINE RECEPTOR M4 FOR TREATING NEUROLOGICAL AND PSYCHIATRIC DISORDERS” (Vanderbilt University, priority 2021, published 2025)
